Experimental data taken from the supplement of paper PMC8671470.

Tests used:
Details in all cases: 72 h
NOMO-1 = test: cell viability (% survival relative to DMSO control, bortezomib = 0%); higher = less cytotoxic
Method in brief: (§1)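 Percent survival is reported as the mean of duplicate wells. Cells from 10 AML and 5 CML lines were plated in 384-well plates containing compounds at 1, 10, 100, 1000 or 10000 nM and kept for 72 h at 37 °C in 5% CO2. Readout used CellTiter-Glo luminescence, scaled so that vehicle equals 100% and a 10 µM positive control equals 0%.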

THP-1 = test: as above
Method in brief: as §1

MOLM-13 = test: as above
Method in brief: as §1

KU-812 = test: as above
Method in brief: as §1

[1] = test system: myeloid leukemia patient primary cells Pat.14; test: cell viability (% survival relative to DMSO control); higher = less cytotoxic
Method in brief: (§2)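 Thawed, Ficoll-purified mononuclear cells from AML or CML patients in RPMI 1640 with 10% FBS were seeded at 10,000 cells/well on 384-well plates pre-printed with 70 compounds at five tenfold concentrations, 1–10,000 nM, in duplicate, for 72 h. Viability was read by CellTiter-Glo and normalised to DMSO and 10 μM proteasome-inhibitor wells. Where given, area under the curve came from four-parameter log-logistic fits (drc, PharmacoGx R packages).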

[2] = test system: myeloid leukemia patient primary cells Pat.5; test: as above
Method in brief: as §2

[3] = test system: myeloid leukemia patient primary cells Pat.10; test: as above
Method in brief: as §2

[4] = test system: myeloid leukemia patient primary cells Pat.15; test: as above
Method in brief: as §2

[5] = test system: myeloid leukemia patient primary cells Pat.7; test: as above
Method in brief: as §2

[6] = test system: myeloid leukemia patient primary cells Pat.1; test: as above
Method in brief: as §2

[7] = test system: myeloid leukemia patient primary cells Pat.6; test: as above
Method in brief: as §2

[8] = test system: myeloid leukemia patient primary cells Pat.8; test: as above
Method in brief: as §2

[9] = test system: myeloid leukemia patient primary cells Pat.3; test: as above
Method in brief: as §2

[10] = test system: myeloid leukemia patient primary cells Pat.13; test: as above
Method in brief: as §2

[11] = test system: myeloid leukemia patient primary cells Pat.2; test: as above
Method in brief: as §2

[12] = test system: myeloid leukemia patient primary cells Pat.9; test: as above
Method in brief: as §2

[13] = test system: myeloid leukemia patient primary cells Pat.11; test: as above
Method in brief: as §2

[14] = test system: myeloid leukemia patient primary cells Pat.4; test: as above
Method in brief: as §2

[15] = test system: myeloid leukemia patient primary cells Pat.12; test: as above
Method in brief: as §2

Question: What does the source list for `O=C(Oc1cccc(F)c1OC(=O)c1cccc(O)c1)c1cccc(O)c1` [WZB117]?
Answer: cell viability (NOMO-1; 1 nM): 95.5%; cell viability (NOMO-1; 10 nM): 94.3%; cell viability (NOMO-1; 100 nM): 94.1%; cell viability (NOMO-1; 1000 nM): 111%; cell viability (NOMO-1; 10000 nM): 82.1%; cell viability (THP-1; 1 nM): 101%; cell viability (THP-1; 10 nM): 102%; cell viability (THP-1; 100 nM): 101%; cell viability (THP-1; 1000 nM): 108%; cell viability (THP-1; 10000 nM): 64.9%; cell viability (MOLM-13; 1 nM): 92.2%; cell viability (MOLM-13; 10 nM): 125%; cell viability (MOLM-13; 100 nM): 94.7%; cell viability (MOLM-13; 1000 nM): 94%; cell viability (MOLM-13; 10000 nM): 44.8%; cell viability (KU-812; 1 nM): 99.1%; cell viability (KU-812; 10 nM): 103%; cell viability (KU-812; 100 nM): 90.9%; cell viability (KU-812; 1000 nM): 99.9%; cell viability (KU-812; 10000 nM): 9.71%; cell viability ([1]; 1 nM): 97.9%; cell viability ([1]; 10 nM): 61.5%; cell viability ([1]; 100 nM): 74%; cell viability ([1]; 1000 nM): 90.2%; cell viability ([1]; 10000 nM): 5.34%; cell viability ([2]; 1 nM): 96.4%; cell viability ([2]; 10 nM): 23.7%; cell viability ([2]; 100 nM): 4.78%; cell viability ([2]; 1000 nM): 26.1%; cell viability ([2]; 10000 nM): 3.37%; cell viability ([3]; 1 nM): 70.4%; cell viability ([3]; 10 nM): 90.9%; cell viability ([3]; 100 nM): 74.7%; cell viability ([3]; 1000 nM): 54.5%; cell viability ([3]; 10000 nM): 31.5%; cell viability ([4]; 1 nM): 96.4%; cell viability ([4]; 10 nM): 78.9%; cell viability ([4]; 100 nM): 86.1%; cell viability ([4]; 1000 nM): 75.7%; cell viability ([4]; 10000 nM): 61.3%; cell viability ([5]; 1 nM): 89.6%; cell viability ([5]; 10 nM): 97.1%; cell viability ([5]; 100 nM): 85.6%; cell viability ([5]; 1000 nM): 87.9%; cell viability ([5]; 10000 nM): 8.3%; cell viability ([6]; 1 nM): 98%; cell viability ([6]; 10 nM): 81.2%; cell viability ([6]; 100 nM): 78%; cell viability ([6]; 1000 nM): 88.7%; cell viability ([6]; 10000 nM): 47.3%; cell viability ([7]; 1 nM): 96.3%; cell viability ([7]; 10 nM): 87.9%; cell viability ([7]; 100 nM): 87.1%; cell viability ([7]; 1000 nM): 93.3%; cell viability ([7]; 10000 nM): 62.6%; cell viability ([8]; 1 nM): 95.5%; cell viability ([8]; 10 nM): 67.8%; cell viability ([8]; 100 nM): 79.7%; cell viability ([8]; 1000 nM): 51.9%; cell viability ([8]; 10000 nM): 11%; cell viability ([9]; 1 nM): 96.7%; cell viability ([9]; 10 nM): 71.3%; cell viability ([9]; 100 nM): 83%; cell viability ([9]; 1000 nM): 72.5%; cell viability ([9]; 10000 nM): < 0%; cell viability ([10]; 1 nM): 94.5%; cell viability ([10]; 10 nM): 86.2%; cell viability ([10]; 100 nM): 78.5%; cell viability ([10]; 1000 nM): 91%; cell viability ([10]; 10000 nM): 63.9%; cell viability ([11]; 1 nM): 99.7%; cell viability ([11]; 10 nM): 83.5%; cell viability ([11]; 100 nM): 90.5%; cell viability ([11]; 1000 nM): 93.6%; cell viability ([11]; 10000 nM): 77.1%; cell viability ([12]; 1 nM): 60.3%; cell viability ([12]; 10 nM): 27.8%; cell viability ([12]; 100 nM): 46.5%; cell viability ([12]; 1000 nM): 59.5%; cell viability ([12]; 10000 nM): 2.92%; cell viability ([13]; 1 nM): > 100%; cell viability ([13]; 10 nM): 94.1%; cell viability ([13]; 100 nM): > 100%; cell viability ([13]; 1000 nM): 95.1%; cell viability ([13]; 10000 nM): 75.4%; cell viability ([14]; 1 nM): 94.5%; cell viability ([14]; 10 nM): 82.1%; cell viability ([14]; 100 nM): 85.2%; cell viability ([14]; 1000 nM): 99%; cell viability ([14]; 10000 nM): 17.3%; cell viability ([15]; 1 nM): 98.4%; cell viability ([15]; 10 nM): 92.8%; cell viability ([15]; 100 nM): 95.5%; cell viability ([15]; 1000 nM): 86.4%; cell viability ([15]; 10000 nM): 57%
